Measured values published in PubChem BioAssay (NCI).
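GI50 is the concentration that inhibits growth by half. At the TGI there is no net growth.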

Columns and labels:
Experiment in all cases: inhibition of tumour cell growth, NCI panel, 384-well format; in the data active means GI50 below about 0.43 µM; inactive means the rest
KM12 colon = tested on: KM12 colon
DU-145 prostate = tested on: DU-145 prostate
SF-539 CNS = tested on: SF-539 CNS
NCI-H522 lung = tested on: NCI-H522 lung
786-0 renal = tested on: 786-0 renal
SK-MEL-5 melanoma = tested on: SK-MEL-5 melanoma
PC-3 prostate = tested on: PC-3 prostate
MDA-MB-231 breast = tested on: MDA-MB-231 breast
MCF7 breast = tested on: MCF7 breast
HT29 colon = tested on: HT29 colon
IGROV1 ovarian = tested on: IGROV1 ovarian
HOP-92 NSCLC = tested on: HOP-92 NSCLC
NCI-H460 NSCLC = tested on: NCI-H460 NSCLC
COLO 205 colon = tested on: COLO 205 colon
OVCAR-4 ovarian = tested on: OVCAR-4 ovarian
SK-MEL-2 melanoma = tested on: SK-MEL-2 melanoma
RXF 393 renal = tested on: RXF 393 renal
EKVX NSCLC = tested on: EKVX NSCLC
OVCAR-8 ovarian = tested on: OVCAR-8 ovarian
SF-268 CNS = tested on: SF-268 CNS
NCI-H226 lung = tested on: NCI-H226 lung
HL-60(TB) leukemia = tested on: HL-60(TB) leukemia
OVCAR-5 ovarian = tested on: OVCAR-5 ovarian
TK-10 renal = tested on: TK-10 renal
MDA-MB-468 breast = tested on: MDA-MB-468 breast
SK-OV-3 ovarian = tested on: SK-OV-3 ovarian
A549 NSCLC = tested on: A549 NSCLC
HCT-15 colon = tested on: HCT-15 colon
SNB-75 CNS = tested on: SNB-75 CNS
SW-620 colon = tested on: SW-620 colon
SNB-19 CNS = tested on: SNB-19 CNS
NCI/ADR-RES ovarian = tested on: NCI/ADR-RES ovarian
UO-31 renal = tested on: UO-31 renal
RPMI-8226 leukemia = tested on: RPMI-8226 leukemia
LOX IMVI melanoma = tested on: LOX IMVI melanoma
OVCAR-3 ovarian = tested on: OVCAR-3 ovarian
A498 renal = tested on: A498 renal
MDA-MB-435 melanoma = tested on: MDA-MB-435 melanoma
K-562 leukemia = tested on: K-562 leukemia
HCC-2998 colon = tested on: HCC-2998 colon
SR leukemia = tested on: SR leukemia
UACC-257 melanoma = tested on: UACC-257 melanoma
UACC-62 melanoma = tested on: UACC-62 melanoma
CCRF-CEM leukemia = tested on: CCRF-CEM leukemia
SN12C renal = tested on: SN12C renal
NCI-H23 lung = tested on: NCI-H23 lung
MOLT-4 leukemia = tested on: MOLT-4 leukemia
M14 melanoma = tested on: M14 melanoma
HOP-62 NSCLC = tested on: HOP-62 NSCLC
U251 glioblastoma = tested on: U251 glioblastoma
SK-MEL-28 melanoma = tested on: SK-MEL-28 melanoma
SF-295 CNS = tested on: SF-295 CNS
ACHN renal = tested on: ACHN renal
BT-549 breast = tested on: BT-549 breast
CAKI-1 renal = tested on: CAKI-1 renal
T-47D breast = tested on: T-47D breast
MALME-3M melanoma = tested on: MALME-3M melanoma
HCT-116 colon = tested on: HCT-116 colon
NCI-H322M lung = tested on: NCI-H322M lung

C=CC(=O)N1CC[C@@H](Oc2nc(Nc3ccc(N4CCC(N5CCN(C)CC5)CC4)cc3)c(C(N)=O)nc2CC)C1
> 100 µM: TGI (KM12 colon) | TGI (DU-145 prostate) | TGI (SF-539 CNS) | TGI (NCI-H522 lung) | TGI (786-0 renal) | TGI (SK-MEL-5 melanoma) | TGI (PC-3 prostate) | TGI (MDA-MB-231 breast) | TGI (MCF7 breast) | TGI (HT29 colon) | TGI (IGROV1 ovarian) | TGI (HOP-92 NSCLC) | TGI (NCI-H460 NSCLC) | TGI (COLO 205 colon) | TGI (OVCAR-4 ovarian) | TGI (SK-MEL-2 melanoma) | TGI (RXF 393 renal) | TGI (EKVX NSCLC) | TGI (OVCAR-8 ovarian) | TGI (SF-268 CNS) | TGI (NCI-H226 lung) | TGI (HL-60(TB) leukemia) | TGI (OVCAR-5 ovarian) | TGI (TK-10 renal) | TGI (MDA-MB-468 breast) | TGI (SK-OV-3 ovarian) | TGI (A549 NSCLC) | TGI (HCT-15 colon) | TGI (SNB-75 CNS) | TGI (SW-620 colon) | TGI (SNB-19 CNS) | TGI (NCI/ADR-RES ovarian) | TGI (UO-31 renal) | TGI (RPMI-8226 leukemia) | TGI (LOX IMVI melanoma) | TGI (OVCAR-3 ovarian) | TGI (A498 renal) | TGI (MDA-MB-435 melanoma) | TGI (K-562 leukemia) | TGI (HCC-2998 colon) | TGI (SR leukemia) | TGI (UACC-257 melanoma) | TGI (UACC-62 melanoma) | TGI (CCRF-CEM leukemia) | TGI (SN12C renal) | TGI (NCI-H23 lung) | TGI (MOLT-4 leukemia) | TGI (M14 melanoma) | TGI (HOP-62 NSCLC) | TGI (U251 glioblastoma) | TGI (SK-MEL-28 melanoma) | TGI (SF-295 CNS) | TGI (ACHN renal) | TGI (BT-549 breast) | TGI (CAKI-1 renal) | TGI (T-47D breast) | TGI (MALME-3M melanoma) | TGI (HCT-116 colon) | TGI (NCI-H322M lung)
inactive: GI50 (KM12 colon) > 100 µM | GI50 (DU-145 prostate) > 100 µM | GI50 (SF-539 CNS) > 100 µM | GI50 (NCI-H522 lung) > 100 µM | GI50 ([…]-0 renal) > 100 µM | GI50 (SK-MEL-5 melanoma) > 100 µM | GI50 (PC-3 prostate) > 100 µM | GI50 (MDA-MB-231 breast) > 100 µM | GI50 (MCF7 breast) > 100 µM | GI50 (HT29 colon) > 100 µM | GI50 (IGROV1 ovarian) > 100 µM | GI50 (HOP-92 NSCLC) > 100 µM | GI50 (NCI-H460 NSCLC) > 100 µM | GI50 (COLO 205 colon) > 100 µM | GI50 (OVCAR-4 ovarian) > 100 µM | GI50 (SK-MEL-2 melanoma) > 100 µM | GI50 (RXF 393 renal) > 100 µM | GI50 (EKVX NSCLC) > 100 µM | GI50 (OVCAR-8 ovarian) > 100 µM | GI50 (SF-268 CNS) > 100 µM | GI50 (NCI-H226 lung) > 100 µM | GI50 (HL-60(TB) leukemia) > 100 µM | GI50 (OVCAR-5 ovarian) > 100 µM | GI50 (TK-10 renal) > 100 µM | GI50 (MDA-MB-468 breast) > 100 µM | GI50 (SK-OV-3 ovarian) > 100 µM | GI50 (A549 NSCLC) > 100 µM | GI50 (HCT-15 colon) > 100 µM | GI50 (SNB-75 CNS) > 100 µM | GI50 (SW-620 colon) > 100 µM | GI50 (SNB-19 CNS) > 100 µM | GI50 (NCI/ADR-RES ovarian) > 100 µM | GI50 (UO-31 renal) > 100 µM | GI50 (RPMI-8226 leukemia) > 100 µM | GI50 (LOX IMVI melanoma) > 100 µM | GI50 (OVCAR-3 ovarian) > 100 µM | GI50 (A498 renal) > 100 µM | GI50 (MDA-MB-435 melanoma) > 100 µM | GI50 (K-562 leukemia) > 88.9 µM | GI50 (HCC-2998 colon) > 100 µM | GI50 (SR leukemia) > 87.9 µM | GI50 (UACC-257 melanoma) > 100 µM | GI50 (UACC-62 melanoma) > 100 µM | GI50 (CCRF-CEM leukemia) > 100 µM | GI50 (SN12C renal) > 100 µM | GI50 (NCI-H23 lung) > 100 µM | GI50 (MOLT-4 leukemia) > 100 µM | GI50 (M14 melanoma) > 100 µM | GI50 (HOP-62 NSCLC) > 100 µM | GI50 (U251 glioblastoma) > 100 µM | GI50 (SK-MEL-28 melanoma) > 100 µM | GI50 (SF-295 CNS) > 100 µM | GI50 (ACHN renal) > 100 µM | GI50 (BT-549 breast) > 100 µM | GI50 (CAKI-1 renal) > 100 µM | GI50 (T-47D breast) > 100 µM | GI50 (MALME-3M melanoma) > 100 µM | GI50 (HCT-116 colon) > 100 µM | GI50 (NCI-H322M lung) > 100 µM
